Test results as given in patent US7056679B2, “Target specific screening and its use for identifying target binders” (Antyra, Inc., priority 2001, dated 2006).
No end group written: not given here.

What was measured:
E-tag antibody = test: ELISA analysis of phage on antibody raised against ETAG (positive control); conditions: peptide binding to E-tag antibody; phage ELISA units read at 405 nm
Method in brief: (§1)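 Phage from picked clones (M13KO7 helper) bound 2 hr at room temperature to wells coated overnight at 4 °C with 500 ng/well anti-ETAG antibody or LDH, milk-blocked. Detection with HRP-anti-M13 (1:3000) and ABTS at 405 nm; positive when A405 ≥2-fold over background.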

[1] = test system: lactate dehydrogenase (LDH); test: ELISA analysis of phage on LDH (irrelevant, non-specific target); format: binding; conditions: peptide binding to LDH polypeptide (non-specific binding); phage ELISA units read at 405 nm
Method in brief: as §1

DGI-2 = target: T1, DGI-2 (Homo sapiens, UniProt Q15004); test: ELISA analysis of phage on DGI-2 polypeptide (specific binding); conditions: for DGI-2 (OD): binding to DGI-2 polypeptide (specific binding), phage ELISA units read at 405 nm; for DGI-2/LDH (OD): ratio of specific binding to non-specific binding
T1 construct: encompassed the entire DGI-2 open reading frame (ORF); His-tag of vector pIVEX2.3-MCS (inferred from the vector and from the reverse primer lacking a stop codon); made in house; host or cells: cell-free in vitro translation (Rapid Translation System RTS, Roche; E. coli lysate)
T1 sequence (Q15004 1-111): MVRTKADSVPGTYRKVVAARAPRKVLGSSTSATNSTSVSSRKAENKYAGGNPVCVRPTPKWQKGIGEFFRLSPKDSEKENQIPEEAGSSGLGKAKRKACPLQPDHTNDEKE
Method in brief: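 Recombinant DGI-2 from in vitro translation, LDH (non-specific) and controls were coated at 500 ng/well and blocked with 2% milk-PBS. Phage from individual clones bound for 2 hr at room temperature, then anti-M13-HRP with ABTS was read at 405 nm; a clone counted as positive at ≥2-fold over background.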

Substance | LDH (OD) [1] [OD] | DGI-2 (OD) (DGI-2) | DGI-2/LDH (OD) (DGI-2) | ETAG (OD) (E-tag antibody)
LHFGSVMGWRPPGSLWSRPFGQVHPRSWSGS (DGI-2-40F-3-D11; listed as Escherichia coli) | 1.3 | 3.8 | 2.9 | 10.5
DAGIGWVGSMWFPPGCIGAC (DGI-2-20R-4-E82; listed as Escherichia coli) | 1.1 | 3.9 | 3.7 | 19.6
RSIRLQLIDEACQFFDGLCT (DGI-2-20R-3-A8; listed as Escherichia coli) | 1.1 | 6.9 | 6.4 | 15.3
DGRGWGAMWMRWAEGLGADI (DGI-2-20R-4-G114; listed as Escherichia coli) | 1.2 | 12.9 | 11.0 | 16.5
RSYPRLCKQKGGVIGRMLPG (DGI-2-20F-PP-B2; listed as Escherichia coli) | 1.1 | 3.3 | 2.9 | 35.9
RFWSVSYQGGRVMCREWGYCLPI (DGI-2-40F-3-C92; listed as Escherichia coli) | 0.8 | 2.1 | 2.6 | 9.8
MQAASTLSTYMGAIRMGYPILHWDRGGVQRVDPGLYRGRV (DGI-2-40F-3-B10; listed as Escherichia coli) | 1.0 | 1.3 | 1.4 | 4.8
LSLLSVVVRSMGASAPQRQV (DGI-2-20F-3-A7; listed as Escherichia coli) | 0.9 | 2.1 | 2.4 | 7.0
TCWIHRGLNVVRYSVNFGVRDARLTTQGMAWFPPGCGQGCV (TCWHRGLNVVRYSVNFGVRDARLTTQGMAWFPPGCGQGCV; DGI-2-40F-4-E62; listed as Escherichia coli) | 1.0 | 4.6 | 4.5 | 14.8
RISVGQCGTSRCGGGRRGGG (DGI-2-20F-PP-D1; listed as Escherichia coli) | 1.1 | 2.0 | 1.9 | 3.0
WGCVFRQWASGSGAGCARRH (DGI-2-20R-3-D9; listed as Escherichia coli) | 1.0 | 6.7 | 6.4 | 19.7
V#CR#LCRLCRFSMRCGGLSLVLGSAAAFFCEVFVGFCV (VCRLCRLCRFSMRCGGLSLVLGSAAAFFCEVFVGFCV; not fully specified (residues 1, 3); cysteine pairing not given here; also: TAA stop codons (#) after V1 and after R3; listed as Escherichia coli) [DGI-2-40F-4-E1130] | 0.9 | 2.9 | 3.2 | 8.3

Now from value to substance, other results behind:

LDH (OD) [1] [OD] | DGI-2 (OD) (DGI-2) | DGI-2/LDH (OD) (DGI-2) | Substance | ETAG (OD) (E-tag antibody)
1.0 | 3.4 | 3.4 | LQIVRPAGMTKMPGQVGYYIG (LQIVRPAGWKMPGQVGYYIG; DGI-2-20R-3-A9; listed as Escherichia coli) | 14.3
0.9 | 1.1 | 1.3 | WRARSSGYLFALTPNFGVPHIPSSALRRMH.GLMARDLRPV [DGI-2-40F-3-C10] | 7.7
0.8 | 1.7 | 2.0 | GVVRAQQGLRYELQGDRYRLRRTQWLTVTYCSPSWAFAGC (DGI-2-40F-3-B116; listed as Escherichia coli) | 6.5
1.0 | 1.1 | 1.1 | LVIQCSASVVACDLYWNYVGCLAAG (DGI-2-20C-3-D12; listed as Escherichia coli) | 3.6
1.1 | 1.5 | 1.4 | GMWIRPNGHMELQGGYTARS (GMWIRPNGHMFLQGGYTARS; DGI-2-20R-4-G8; listed as Escherichia coli) | 14.5
1.0 | 5.8 | 5.9 | GGGRESWGGGWFMGWGSGAG (DGI-2-20R-3-A6; listed as Escherichia coli) | 17.7
1.0 | 3.3 | 3.2 | GITGLFCLCLRSSQSI (DGI-2-20F-PP-D6; listed as Escherichia coli) [DGI-2-20F-P0P-D6] | 5.7
1.2 | 2.4 | 2.0 | GASRVVDVGWRFWGKLWQRS (DGI-2-20F-PP-G5; listed as Escherichia coli) | 27.7
1.3 | 3.7 | 2.8 | MSTLQGPGHLFQMLRRASLG (DGI-2-20R-4-H12; listed as Escherichia coli) | 10.9
0.9 | 1.8 | 2.0 | LAPMFLQNQVRTWAASRRPLPAGPSNARCETGSLSPWVPC (DGI-2-40F-3-B11; listed as Escherichia coli) | 7.9
0.9 | 5.7 | 6.0 | YGTAGLFLRRACTMSDPGDPLGRRGYTGWGVLWDEWVTGS (DGI-2-40F-3-C8; listed as Escherichia coli) | 13.6
1.0 | 5.7 | 5.5 | DGKHLTKWSGRGWWSAWVGG (DGI-2-20R-3-B12; listed as Escherichia coli) | 15.5
1.1 | 2.5 | 2.3 | CYLSRLFRSGQGIGQFGHVE (DGI-2-20F-PP-A82; listed as Escherichia coli) | 16.5
1.0 | 2.1 | 2.1 | DSEA*RVWYSGFLRRLGHMC (DSEARVWYSGFLRRLGHMC; DGI-2-20F-PP-F7; listed as Escherichia coli) | 3.3
1.1 | 2.7 | 2.5 | GLYQRGLAPRCRGERFGVRN (DGI-2-20F-PP-C2; listed as Escherichia coli) | 6.0
1.1 | 6.6 | 6.0 | SLECWAMPGMVVRLVGCDGP (DGI-2-20R-4-H112; listed as Escherichia coli) | 12.3
0.9 | 2.6 | 2.8 | GGDLGEQGVQLCPDVVRGGSL (DGI-2-20F-PP-A7; listed as Escherichia coli) | 42.2
